This note sets out measurements from US20040039041A1, “Prevention of development of dyskinesias” (priority 2003, published 2004).

The test system of assay [1] is C57BL/6J strain male mice. Put plainly: Locomotor activity during chronic treatment (days 1-8), D-amphetamine sensitization schedule with atipamezole pre-treatment. The assay is classed as in vivo. The protocol: The effects of atipamezole on the locomotor hyperactivity induced by repeated administration of D-amphetamine were studied in male mice.
(§1) Experiments were performed with C57BL/6J strain male mice from Jackson Laboratories. Mice were transferred to laboratory at least 2 weeks prior to use. The mice were from 8 to 20 weeks of age at the beginning of an experiment. Groups of 10 mice were housed in standard polypropylene cages (38×22×15 cm) with free access to standard certified pelleted food (RM1 Maintenance Expanded SQC; Special Diet Services, Essex, UK) and water. Ambient temperature was 22±1 C°, and a 12:12 h light/dark cycle was maintained with lights on at 6 A.M. All experiments were carried out between 7 A.M. and 5 P.M. The animal care was performed in accordance with International Council for Laboratory Animal Science (ICLAS) guidelines.
(§2) D-Amphetamine sulphate (Sigma, St. Louis, Mo., U.S.A.) and atipamezole HCl (Orion Corporation, Orion Pharma, Turku, Finland) were dissolved in saline (0.9% NaCl) and administered subcutaneously (s.c.) in a 5 ml/kg volume.
(§3) The locomotor activity of the mice was measured in transparent standard polypropylene animal cages (38×22×15 cm) with transparent cover and aspen bedding on the floor. Test cages were placed middle of the photobeam frame system (Photobeam Activity System PAS, Cage Rack, San Diego Instruments, San Diego, Calif.). Computer control unit registered the interruptions of photobeams from 16 individual cages. Three different types of movements were monitored: 1) ambulations (large horizontal movements), 2) fine movements (smaller horizontal movements) and 3) rearings (vertical movements). Locomotor activity was measured at 5-min intervals for 2 h immediately after D-amphetamine or saline administrations.
D-amphetamine was administered subcutaneously (s.c.) at the dose of 2 mg/kg. Atipamezole was administered s.c. at the dose of 1 mg/kg 20 min before locomotor activity measurement.
In the chronic-treatment group mice were administrated during eight days to elicit provoked locomotor hyperactivity to D-amphetamine and the effect of the atipamezole to the locomotor activity. Mice groups in the chronic treatment schedule were saline, saline-amphetamine, amphetamine, atipamezole and atipamezole-amphetamine. A day before experiment, mice were habituated to the test environment. […] At days seven and eight, the produced locomotor hyperactivity and effect of a single exposure of D-amphetamine (saline-amphetamine-group) were analysed. […]
All data are presented as mean±SEM. […] Results were analysed separately, because data were collected in separate experiments with different study design. When significance (P<0.05) between treatment groups were found comparisons at each time point (date or min) were analyzed by using LSD post-hoc test.

Assay [2] deals with C57BL/6J strain male mice. Put plainly: Locomotor activity after different drug treatments at day 9 in the chronic treatment groups. The assay is classed as in vivo. The protocol:
as §1, §2, §3
At day nine, the effect of different atipamezole and amphetamine administrations to the locomotor activity on the chronic treatment groups were analysed. Used treatments were saline, 1 mg/kg atipamezole, 2 mg/kg D-amphetamine, 0.3 mg/kg atipamezole-2 mg/kg D-amphetamine and 1 mg/kg atipamezole-2 mg/kg D-amphetamine. Chronic treatment groups were saline-, atipamezole-, amphetamine- and atipamezole-amphetamine groups. Chronic groups were treated following schedule in Table 2.
All data are presented as mean±SEM. Statistical analysis were performed using SPSS 9.0 for Windows (SPSS, Chicago, Ill.). Separate repeated measures analyses of variance (ANOVA) were performed on each variable for each experiment grouped on time and treatment group. Results were analysed separately, because data were collected in separate experiments with different study design. When significance (P<0.05) between treatment groups were found comparisons at each time point (date or min) were analyzed by using LSD post-hoc test.

With `CCC1(c2c[nH]cn2)Cc2ccccc2C1` [Atipamezole, 4-(2-ethyl-2,3-dihydro-1H-inden-2-yl)-1H-imidazole], the “D-amphetamine-induced locomotion, atipamezole-amphetamine vs amphetamine group” value in assay [1] (atipamezole 1 mg/kg s.c. 20 min before D-amphetamine 2 mg/kg s.c. over the course of exposure, Day 2 P<0.05, Days 3-8 P<0.001) is listed as “decreased significantly D-amphetamine-induced locomotion”. In addition, in assay [1] (atipamezole 1 mg/kg s.c. daily for six days, 20 min before saline, Day 8, P=0.43), the “locomotor activity, atipamezole pre-treatment before saline challenge vs saline group” value is recorded as “not statistical significant difference”. Also, the “development and expression of sensitization (motor overactivity)” value in assay [1] (given chronically in combination with D-amphetamine, in mice (summary statement)) is “reduced the development and expression of sensitization”. The “D-amphetamine-induced locomotor hyperactivity in sensitized mice” value is given as “clearly attenuated the D-amphetamine-induced locomotor hyperactivity” in assay [2] (Day 9, chronic amphetamine group, atipamezole 0.3 mg/kg 20 min before D-amphetamine 2 mg/kg, P=0.005) and “clearly attenuated the D-amphetamine-induced locomotor hyperactivity” in assay [2] (Day 9, chronic amphetamine group, atipamezole 1 mg/kg 20 min before D-amphetamine 2 mg/kg, P<0.001). Moreover, the “locomotor activity before saline and D-amphetamine challenge after chronic atipamezole” value in assay [2] (Day 9, chronic atipamezole group (1 mg/kg days 1-8)) is reported as “elevation was not statistically significant”. Also, the “D-amphetamine induced locomotion, group atipamezole-amphetamine vs amphetamine-amphetamine” value in assay [2] (Day 9, chronic atipamezole-amphetamine group given atipamezole 1 mg/kg 20 min before D-amphetamine 2 mg/kg, P<0.001) is given as “decreased significantly D-amphetamine induced locomotion”. In assay [2] (Day 9, chronic atipamezole-amphetamine group given only D-amphetamine 2 mg/kg, P-0.026), the “locomotor activity with D-amphetamine only at Day 9 after chronic atipamezole-amphetamine, compared to amphetamine-amphetamine group (development of sensitization)” value is “true reduction in the development of sensitization”. The “locomotor activity, atipamezole pre-treatment before D-amphetamine challenge compared D-amphetamine alone” value in assay [2] (Day 9, chronic saline group, atipamezole 0.3 mg/kg 20 min before D-amphetamine 2 mg/kg, P=0.016) is given as “amplified locomotor activity”; in assay [2] (Day 9, chronic saline group, atipamezole 1 mg/kg 20 min before D-amphetamine 2 mg/kg, P=0.364), “had no effect”. Besides, the “total ambulatory activity counts, atipamezole pre-treatment alone” value in assay [2] (Day 9, chronic saline group, atipamezole 1 mg/kg 20 min before saline, P=0.81) is reported as “did not alter total ambulatory activity counts”.

In the case of `C[C@H](N)Cc1ccccc1` [D-amphetamine], the “ambulatory activity compared to saline group” value in assay [1] (D-amphetamine 2 mg/kg s.c., six repeated administrations (days 1-4, 7, 8), 2-h counts, group amphetamine vs saline and saline-amphetamine at Day 8 P<0.001) is reported as “progressive enhance in ambulatory activity”. The “ambulatory sensitization during repeated administration” value in assay [2] (Day 9, chronic amphetamine group, D-amphetamine 2 mg/kg, P<0.001) is “developed strong ambulatory sensitization”. The “locomotor activity after D-amphetamine” value in assay [2] (Day 9, chronic saline group, D-amphetamine 2 mg/kg s.c., P<0.001 vs saline, not same level as amphetamine group (P<0.001)) is “significantly enhanced locomotor activity”.
